Key:
Format in all cases: cell-based, human
[1] = test system: ecDNA hubs in TetO-GFP COLO320-DM cells; experiment: Live cell imaging of TetR-eGFP-labeled ecDNAs through cell division; details: 500 nM JQ1
From the text: sgRNA was designed by E-CRISP (http://www.e-crisp.org/E-CRISP/designcrispr.html) targeting ˜0.5 kb upstream of MYC transcription start site or N-terminal BRD4 gene. The sgRNA was cloned into the modified pX330 (Addgene, Cat #42230) construct co-expressing wild type SpCas9 and a PGK-Venus cassette. ˜500 bp homology arms were PCR amplified from COLO320-DM cells and cloned into a pUC19 donor vector together with ˜96 copies of TetO array and a blasticidin selection cassette
(Addgene #118713) for ecDNA-TetO array or with HaloTag (Addgene #139747) for BRD4. 2 μg of the donor vector and 1 μg of the sgRNA vector were transfected into COLO320-DM cells by lipofectamine 3000. For ecDNA-TetO array, blasticidin (10 ug/ml) selection was applied after 7 days. For BRD4-HaloTag knock-in, 100 nM HaloTag ligand JF549 (a kind gift from Luke Lavis's lab at Janelia Research Campus) was applied to the cells followed by washing and FACS sorting. Individual clones were selected, genotyped by PCR and verified by Sanger sequencing before being tested for imaging. […]
To monitor ecDNA dynamics within the nucleus, the COLO320-DM TetO-eGFP cell line was transfected with the PiggyBac vector expressing H2B-SNAPf and the super PiggyBac transposase (2:1 ratio) as described previously51. […] TetO labeled ecDNA was similarly analyzed as described in previous DNA/RNA FISH section. […]

[2] = test system: ecDNA+ COLO320-DM cells; experiment: PVT1 promoter-driven NanoLuc luciferase reporter in COLO320-DM; details: JQ1 500 nM, 6 hours
From the text: We constructed a plasmid containing the 2 kb PVT1 promoter (chr8: 128,804,981-128,806,980, hg19) or the MYC promoter (chr8: 128,745,990-128,748,526, hg19) driving NanoLuc luciferase (PVT1p-nLuc) and a constitutive thymidine kinase (TK) promoter driving Firefly luciferase as an internal control (FIG. 3b). Briefly, pGL4-tk-luc2 (Promega) was digested with KpnI and PciI. A sequence containing multiple cloning sites ([…]), NanoLuc and BGH polyA sequence were inserted in tandem into the vector using Gibson assembly (NEBuilder DNA assembly mix). Next, the PVT1 promoter or the MYC promoter was inserted into the vector via NheI and SalI digestion to generate the final reporter construct. For the negative control, a minimal promoter ([…]) was used in place of the PVT1 promoter. For constructing plasmids with a cis-enhancer, an enhancer (chr8: 128347148-128348310, hg19; positive H3K27ac mark and looping to the PVT1 promoter in HiChIP, overlapping with BRD4 ChIP peak and ATAC-seq peak in COLO320-DM) was inserted directly 5′ to the promoter into the region with multiple cloning sites. […] Luciferase levels were quantified using Nano-Glo Dual reporter luciferase assay (Promega). The reporter level was calculated as the ratio of NanoLuc reading over firefly reading using Tecan M1000. Mean and standard errors were calculated based on three biological replicates with three technical replicate each.

[3] = test system: FGFR2 in SNU16; experiment: Oncogene RNA measured by RT-qPCR in SNU16 (FGFR2); details: 500 nM JQ1, 6 hours

Cc1sc2c(c1C)C(c1ccc(Cl)cc1)=N[C@@H](CC(=O)OC(C)(C)C)c1nnc(C)n1-2 [JQ1]
ecDNA hub assembly following mitosis [1]: blocked | repression of PVT1p-mediated transcription [2]: ~5 fold | ecDNA-derived transcription of FGFR2 [3]: reduced

— US20250304952A1, “DNA ELEMENT RESPONSIVE TO EXTRACHROMOSOMAL DNA IN CANCER CELLS” (The Board of Trustees of the Leland Stanford Junior …, priority 2021, published 2025)
